Results from US20260078120A1, “SUBSTITUTED PYRIDOPYRIMIDINONES” (MIRATI THERAPEUTICS, INC., priority 2022, published 2026).

Assays:
Type in all cases: cell-based
[1] = test system: T47D (PI3Kα H1047R mutant) cells; experiment: Inhibition of pAKT formation, alphaLISA SureFire Ultra AKT 1/2/3 (pS473), T47D cells; details: Homo sapiens, T47D, T47D (PI3Kα H1047R mutant) cells; inhibition of pAKT (pS473) formation; approximately one hour or 24 hours treatment; read-out: T47D pAKT (H1047R mutant) IC50
Protocol: The ability of a compound of Formula (I) to inhibit the formation of pAKT was measured using alphaLISA Surefire Ultra AKT 1/2/3 (pS473) Assay Kit (#ALSU-PAKT-B50K) was obtained from Perkin Elmer (Waltham, MA).
To prepare assay plates for pAKT alphaLISA assays, cells were trypsinized, resuspended in fresh media, and viable cells were counted utilizing trypan blue exclusion. Prior to seeding, cells were washed with PBS and resuspended in HBSS (Gibco, #14025092). T47D (12,000/w), SKBR3(12,000/w), or MKN1(24,000/w) cells were seeded at 12 μl per well in a solid white flat bottom 384 cell culture plate (Perkin Elmer #6007680).
Immediately after seeding, cells were dosed using an Echo Liquid Handler (Beckman Coulter) with compounds at a […] starting concentration and serially diluted (1:4) for a total of 10 concentrations. […] Cells were incubated with the compounds (solubilized in DMSO) for approximately one hour or 24 hours at 37° C. After one hour (or 24 hours) of treatment, cells were lysed with 3 μl of the 5× lysis buffer (provided and incubated at room temperature for 15 min on a microtiter plate shaker). Once cells were sufficiently lysed, 7.5 μl of the acceptor bead mix (made using the manufacturers recommended dilutions) was added to each well and left on the microtiter plate shaker for 1 min prior to incubating plates at room temperature for one hour, in the absence of light. After one hour of incubation with the acceptor bead mix, 7.5 μl of the donor bead mix (made using the manufacturers recommended dilutions) was added to each well and left on the microtiter plate shaker for 1 min prior to incubating plates at room temperature overnight in the absence of light. Plates were then imaged the following day using a CLARIOstar microplate reader (BMG Labtech, Germany).
Percent of control values were calculated by subtracting the average signal from the positive control (alpelisib) treated wells from all treated wells (including DMSO control wells) and then divided by the average signal from the vehicle DMSO treated control wells. Percent of vehicle control values were plotted as log (inhibitor) vs. response-Variable slope (four parameters) for curve fitting and IC50 values were determined using XLfit.
Key: N.D. =not determined
Inhibition of pAKT in T47D (PI3Kα H1047R mutant) cells by Exemplary Compounds of Formula (I)

[2] = test system: T47D (PI3Kα H1047R mutant) cells; experiment: CellTiter-Glo 2.0 luminescent cell viability assay, 72 hours, T47D cells; details: T47D (PI3Kα H1047R mutant) cells, CellTiter-Glo, approximately 72 hours, read-out: T47D (H1047R mutant) Viability IC50
Method in brief: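 Cells seeded at 1000 per well overnight were dosed with a 10-concentration, 1:4 series starting at 10 µM and incubated ~72 h at 37° C. Viability was read by CellTiter-Glo 2.0 luminescence after 30 min at room temperature. IC50 came from four-parameter fits of percent vehicle control.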

[3] = test system: SKBR3 (PI3Kα wild type) cells; experiment: CellTiter-Glo 2.0 luminescent cell viability assay, 72 hours, SKBR3 cells; details: Homo sapiens, SK-BR-3, 72 h, SKBR3 (PI3Kα wild type) cells, CellTiter-Glo, approximately 72 hours; read-out: SKBR3 (WT) Viability IC50
Method in brief: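 Viability measured via CTG luminescence following roughly 72 hours of compound exposure at 37° C. Dosing used a 10 um starting concentration diluted 1:4 over 10 points; percent-of-vehicle data fitted with a variable-slope four-parameter model for IC50.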

Structure (SMILES): Cc1cc([C@@H](C)Nc2ccccc2C(=O)O)c2nc(N3CC4CC(C3)C4(F)F)c(C)c(=O)n2c1 [Example 10-102, 2-(((1R)-1-(2-(6,6-difluoro-3-azabicyclo[3.1.1]heptan-3-yl)-3,7-dimethyl-4-oxo-4H-pyrido[1,2-a]pyrimidin-9-yl)ethyl)amino)benzoic acid]
- IC50 [1]: 3.71 nM
- IC50 ([2]; Homo sapiens, T47D, 72 h): 87 nM
- IC50 [3]: > 10000 nM

Structure (SMILES): Cc1cc([C@@H](C)Nc2ccccc2C(=O)O)c2nc(N3CCN(c4ccc(C#N)cc4)[C@H](C)C3)c(C)c(=O)n2c1 [Example 10-24, 2-(((R)-1-(2-((R)-4-(4-cyanophenyl)-3-methylpiperazin-1-yl)-3,7-dimethyl-4-oxo-4H-pyrido[1,2-a]pyrimidin-9-yl)ethyl)amino)benzoic acid]
- IC50 [1]: 5.49 nM
- IC50 ([2]; Homo sapiens, T47D, 72 h): 48.6 nM
- IC50 [3]: > 10000 nM

Structure (SMILES): CCc1cc([C@@H](C)Nc2ccccc2C(=O)O)c2nc(N3Cc4ccccc4C3)c(C#N)c(=O)n2c1 [Example 11-328, (R)-2-((1-(3-cyano-7-ethyl-2-(isoindolin-2-yl)-4-oxo-4H-pyrido[1,2-a]pyrimidin-9-yl)ethyl)amino)benzoic acid]
- IC50 [2]: 1910 nM
- IC50 [3]: 6820 nM

Structure (SMILES): Cc1cc([C@@H](C)Nc2cccn(C)c2=O)c2nc(N3CCCCC3)c(C)c(=O)n2c1 [Example 11-278, (R)-3,7-dimethyl-9-(1-((1-methyl-2-oxo-1,2-dihydropyridin-3-yl)amino)ethyl)-2-(piperidin-1-yl)-4H-pyrido[1,2-a]pyrimidin-4-one]
- IC50 ([2]; Homo sapiens, T47D, 72 h): 8350 nM
- IC50 [3]: > 10000 nM

Structure (SMILES): Cc1cc([C@@H](C)Nc2ccccc2C(=O)O)c2nc(N3CCN(c4cccc(C#N)c4)CC3)c(C#N)c(=O)n2c1 [Example 11-225, (R)-2-((1-(3-cyano-2-(4-(3-cyanophenyl)piperazin-1-yl)-7-methyl-4-oxo-4H-pyrido[1,2-a]pyrimidin-9-yl)ethyl)amino)benzoic acid]
- IC50 ([2]; Homo sapiens, T47D, 72 h): 144 nM
- IC50 [3]: > 10000 nM

Structure (SMILES): Cc1cc(C(=O)NC2(CC(=O)O)CCC2)c2nc(N3CCCCC3)c(C#N)c(=O)n2c1 [Example 11-316, 2-(1-(3-cyano-7-methyl-4-oxo-2-(piperidin-1-yl)-4H-pyrido[1,2-a]pyrimidine-9-carboxamido)cyclobutyl)acetic acid]
- IC50 ([2]; Homo sapiens, T47D, 72 h): > 10000 nM
- IC50 [3]: > 10000 nM

Structure (SMILES): Cc1cc([C@@H](C)Nc2ccccc2C(=O)O)c2nc(N3CC4CC(C3)N4c3ccc(C#N)cc3)c(C)c(=O)n2c1 [Example 11-135, 2-(((1R)-1-(2-(6-(4-cyanophenyl)-3,6-diazabicyclo[3.1.1]heptan-3-yl)-3,7-dimethyl-4-oxo-4H-pyrido[1,2-a]pyrimidin-9-yl)ethyl)amino)benzoic acid]
- IC50 ([2]; Homo sapiens, T47D, 72 h): 169 nM
- IC50 [3]: > 10000 nM

Structure (SMILES): Cc1cc([C@@H](C)Nc2ccccc2C(=O)O)c2nc(N3CCN(c4cccc(C#N)c4)CC3)c(C)c(=O)n2c1 [Example 11-226, (R)-2-((1-(2-(4-(3-cyanophenyl)piperazin-1-yl)-3,7-dimethyl-4-oxo-4H-pyrido[1,2-a]pyrimidin-9-yl)ethyl)amino)benzoic acid]
- IC50 ([2]; Homo sapiens, T47D, 72 h): 282 nM
- IC50 [3]: > 10000 nM

Structure (SMILES): Cc1cc([C@@H](C)Nc2ccccc2C(=O)O)c2nc(N3CCC4(CCO4)C3)c(C#N)c(=O)n2c1 (stereo partly drawn) [Example 11-285, 2-(((1R)-1-(3-cyano-7-methyl-4-oxo-2-(1-oxa-6-azaspiro[3.4]octan-6-yl)-4H-pyrido[1,2-a]pyrimidin-9-yl)ethyl)amino)benzoic acid]
- IC50 ([2]; Homo sapiens, T47D, 72 h): > 10000 nM
- IC50 [3]: > 10000 nM

Structure (SMILES): Cc1cc(C(C)Nc2ccc(C(F)(F)F)nc2C(=O)O)c2nc(N3Cc4ccccc4C3)c(C)c(=O)n2c1 (centres unmarked) [Example 11-355, 3-((1-(2-(isoindolin-2-yl)-3,7-dimethyl-4-oxo-4H-pyrido[1,2-a]pyrimidin-9-yl)ethyl)amino)-6-(trifluoromethyl) picolinic acid]
- IC50 ([2]; Homo sapiens, T47D, 72 h): 880 nM
- IC50 [3]: > 10000 nM

Structure (SMILES): Cc1cc([C@@H](C)Nc2ccccc2C(=O)O)c2nc(N3CC4CC(C4)C3)c(C#N)c(=O)n2c1 [Example 11-227, (R)-2-((1-(2-(3-azabicyclo[3.1.1]heptan-3-yl)-3-cyano-7-methyl-4-oxo-4H-pyrido[1,2-a]pyrimidin-9-yl)ethyl)amino)benzoic acid]
- IC50 ([2]; Homo sapiens, T47D, 72 h): 123 nM
- IC50 [3]: > 10000 nM

Structure (SMILES): Cc1cc(C(C)Nc2ccccc2C(=O)O)c2nc(N3C4CCC3CC4)cc(=O)n2c1 (centres unmarked) [Example 11-344, 2-((1-(2-(7-azabicyclo[2.2.1]heptan-7-yl)-7-methyl-4-oxo-4H-pyrido[1,2-a]pyrimidin-9-yl)ethyl)amino)benzoic acid]
- IC50 ([2]; Homo sapiens, T47D, 72 h): 2150 nM
- IC50 [3]: > 10000 nM

Structure (SMILES): Cc1cc([C@@H](C)Nc2ccccc2C(=O)O)c2nc(N3CCC(F)(F)[C@H](C)C3)c(C#N)c(=O)n2c1 [Example 11-64, 2-(((R)-1-(3-cyano-2-((R)-4,4-difluoro-3-methylpiperidin-1-yl)-7-methyl-4-oxo-4H-pyrido[1,2-a]pyrimidin-9-yl)ethyl)amino)benzoic acid]
- IC50 ([2]; Homo sapiens, T47D, 72 h): 131 nM
- IC50 [3]: > 10000 nM

Structure (SMILES): Cc1cc([C@@H](C)Nc2ccccc2C(=O)O)c2nc(NCC3CCOC3)c(C)c(=O)n2c1 (stereo partly drawn) [Example 11-197, 2-(((1R)-1-(3,7-dimethyl-4-oxo-2-(((tetrahydrofuran-3-yl)methyl)amino)-4H-pyrido[1,2-a]pyrimidin-9-yl)ethyl)amino)benzoic acid]
- IC50 ([2]; Homo sapiens, T47D, 72 h): 1290 nM
- IC50 [3]: > 10000 nM

Structure (SMILES): C[C@@H](Nc1ccccc1C(=O)O)c1cc(C2CC2)cn2c(=O)c(C#N)c(N3Cc4ccccc4C3)nc12 [Example 11-326, (R)-2-((1-(3-cyano-7-cyclopropyl-2-(isoindolin-2-yl)-4-oxo-4H-pyrido[1,2-a]pyrimidin-9-yl)ethyl)amino)benzoic acid]
- IC50 ([2]; Homo sapiens, T47D, 72 h): 2580 nM
- IC50 [3]: 3960 nM

Structure (SMILES): Cc1c(N2Cc3ccccc3C2)nc2c([C@@H](C)Nc3ccccc3C(=O)O)cc(F)cn2c1=O [Example 11-290, (R)-2-((1-(7-fluoro-2-(isoindolin-2-yl)-3-methyl-4-oxo-4H-pyrido[1,2-a]pyrimidin-9-yl)ethyl)amino)benzoic acid]
- IC50 ([2]; Homo sapiens, T47D, 72 h): 392 nM
- IC50 [3]: > 10000 nM

Structure (SMILES): Cc1cc([C@H](C)Nc2ccccc2C(=O)O)c2nc(N3CCCCC3)c(C(F)(F)F)c(=O)n2c1 [Example 11-414, (S)-2-((1-(7-methyl-4-oxo-2-(piperidin-1-yl)-3-(trifluoromethyl)-4H-pyrido[1,2-a]pyrimidin-9-yl)ethyl)amino)benzoic acid]
- IC50 ([2]; Homo sapiens, T47D, 72 h): 1820 nM
- IC50 [3]: > 10000 nM

Structure (SMILES): Cc1cc([C@@H](C)Nc2ccccc2C(=O)O)c2nc(N3CCC(F)(F)C(C)C3)c(C)c(=O)n2c1 (stereo partly drawn) [Example 11-65, 2-(((1R)-1-(2-(4,4-difluoro-3-methylpiperidin-1-yl)-3,7-dimethyl-4-oxo-4H-pyrido[1,2-a]pyrimidin-9-yl)ethyl)amino)benzoic acid]
- IC50 ([2]; Homo sapiens, T47D, 72 h): 146 nM
- IC50 [3]: > 10000 nM

Structure (SMILES): Cc1cc([C@@H](C)Nc2ccccc2C(=O)O)c2nc(-c3cn(-c4ccc(C#N)cc4)cn3)cc(=O)n2c1 [Example 11-237, (R)-2-((1-(2-(1-(4-cyanophenyl)-1H-imidazol-4-yl)-7-methyl-4-oxo-4H-pyrido[1,2-a]pyrimidin-9-yl)ethyl)amino)benzoic acid]
- IC50 ([2]; Homo sapiens, T47D, 72 h): 1410 nM
- IC50 [3]: > 10000 nM

Structure (SMILES): Cc1cc([C@@H](C)Nc2ccccc2C(=O)O)c2nc(N3C[C@H]4C[C@@H]3CN4c3ccc(C#N)cc3)c(C#N)c(=O)n2c1 [Example 11-174, 2-(((R)-1-(3-cyano-2-((1R,4R)-5-(4-cyanophenyl)-2,5-diazabicyclo[2.2.1]heptan-2-yl)-7-methyl-4-oxo-4H-pyrido[1,2-a]pyrimidin-9-yl)ethyl)amino)benzoic acid]
- IC50 ([2]; Homo sapiens, T47D, 72 h): 900 nM
- IC50 [3]: > 10000 nM

Structure (SMILES): Cc1cc(C(C)Nc2ccccc2C(=O)O)c2nc(N3CCN(C(=O)C4CC4)CC3)cc(=O)n2c1 (centres unmarked) [Example 11-336, 2-((1-(2-(4-(cyclopropanecarbonyl)piperazin-1-yl)-7-methyl-4-oxo-4H-pyrido[1,2-a]pyrimidin-9-yl)ethyl)amino)benzoic acid]
- IC50 ([2]; Homo sapiens, T47D, 72 h): 2740 nM
- IC50 [3]: > 10000 nM
